{"source": "ChEMBL document CHEMBL1201862", "about": "“PubChem BioAssay data set” (2004)", "key": {"[1]": {"target": "Voltage-gated inwardly rectifying potassium channel KCNH2 (Homo sapiens, UniProt Q12809)", "sequence (Q12809 whole entry)": "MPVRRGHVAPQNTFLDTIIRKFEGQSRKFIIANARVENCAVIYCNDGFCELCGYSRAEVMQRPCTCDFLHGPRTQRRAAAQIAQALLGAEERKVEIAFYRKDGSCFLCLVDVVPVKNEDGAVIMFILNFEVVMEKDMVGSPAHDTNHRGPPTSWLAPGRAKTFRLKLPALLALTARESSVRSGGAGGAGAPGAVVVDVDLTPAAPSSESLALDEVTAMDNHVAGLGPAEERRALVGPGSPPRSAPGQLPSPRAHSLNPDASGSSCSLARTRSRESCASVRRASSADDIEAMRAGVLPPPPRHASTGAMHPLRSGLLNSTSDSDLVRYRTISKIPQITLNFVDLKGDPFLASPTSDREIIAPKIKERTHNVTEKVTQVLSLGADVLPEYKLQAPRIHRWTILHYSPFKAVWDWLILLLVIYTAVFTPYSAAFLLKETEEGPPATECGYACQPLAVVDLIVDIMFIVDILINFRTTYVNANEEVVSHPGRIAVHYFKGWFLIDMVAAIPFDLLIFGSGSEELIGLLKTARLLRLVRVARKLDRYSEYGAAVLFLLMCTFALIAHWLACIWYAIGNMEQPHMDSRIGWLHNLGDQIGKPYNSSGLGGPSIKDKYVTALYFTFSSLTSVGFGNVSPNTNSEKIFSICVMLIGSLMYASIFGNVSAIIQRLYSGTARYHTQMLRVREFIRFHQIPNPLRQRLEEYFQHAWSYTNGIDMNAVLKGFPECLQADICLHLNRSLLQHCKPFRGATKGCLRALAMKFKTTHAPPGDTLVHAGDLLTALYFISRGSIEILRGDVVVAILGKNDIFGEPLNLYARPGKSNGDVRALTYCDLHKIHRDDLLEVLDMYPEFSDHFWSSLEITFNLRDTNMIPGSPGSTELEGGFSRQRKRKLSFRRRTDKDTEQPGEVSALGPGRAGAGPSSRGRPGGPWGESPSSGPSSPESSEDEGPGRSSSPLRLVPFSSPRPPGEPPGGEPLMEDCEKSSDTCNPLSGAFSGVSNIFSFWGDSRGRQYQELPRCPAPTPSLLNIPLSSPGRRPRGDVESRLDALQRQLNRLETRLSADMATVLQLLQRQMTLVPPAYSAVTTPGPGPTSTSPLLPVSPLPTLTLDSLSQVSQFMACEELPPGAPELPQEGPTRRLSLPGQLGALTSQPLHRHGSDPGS", "conditions": "Potency"}, "Cytochrome P450 2D6": {"target": "Cytochrome P450 2D6 (Homo sapiens, UniProt P10635)", "sequence (P10635 whole entry)": "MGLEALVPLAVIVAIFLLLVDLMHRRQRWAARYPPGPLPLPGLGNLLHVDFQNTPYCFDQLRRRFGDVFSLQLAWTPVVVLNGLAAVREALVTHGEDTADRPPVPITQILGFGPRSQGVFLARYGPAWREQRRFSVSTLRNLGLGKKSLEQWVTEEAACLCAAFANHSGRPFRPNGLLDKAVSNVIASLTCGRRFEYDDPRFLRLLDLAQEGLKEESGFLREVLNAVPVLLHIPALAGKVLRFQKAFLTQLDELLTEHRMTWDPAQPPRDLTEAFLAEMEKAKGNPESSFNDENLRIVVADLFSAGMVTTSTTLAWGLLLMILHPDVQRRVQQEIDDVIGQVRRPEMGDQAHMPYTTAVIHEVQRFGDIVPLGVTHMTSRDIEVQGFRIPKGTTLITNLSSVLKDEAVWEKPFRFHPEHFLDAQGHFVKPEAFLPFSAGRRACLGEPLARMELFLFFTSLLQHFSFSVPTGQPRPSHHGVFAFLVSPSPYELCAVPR"}, "HEK293 [2]": {"test_system": "HEK293", "assay": "cells", "conditions": "Homo sapiens"}, "HEK293 [3]": {"test_system": "HEK293", "assay": "cells", "conditions": "Homo sapiens", "remark": "listed apart in the source"}, "A-375": {"test_system": "A-375", "assay": "A375 melanoma cell viability reduction, dose response, counter-screen for MITF modulator project, cherry-pick samples, set 2 (AID 540335)", "format": "functional, cell-based", "conditions": "Homo sapiens"}, "[4]": {"target": "T1, Microphthalmia-associated transcription factor (Homo sapiens, UniProt O75030)", "T1 sequence (O75030 whole entry)": "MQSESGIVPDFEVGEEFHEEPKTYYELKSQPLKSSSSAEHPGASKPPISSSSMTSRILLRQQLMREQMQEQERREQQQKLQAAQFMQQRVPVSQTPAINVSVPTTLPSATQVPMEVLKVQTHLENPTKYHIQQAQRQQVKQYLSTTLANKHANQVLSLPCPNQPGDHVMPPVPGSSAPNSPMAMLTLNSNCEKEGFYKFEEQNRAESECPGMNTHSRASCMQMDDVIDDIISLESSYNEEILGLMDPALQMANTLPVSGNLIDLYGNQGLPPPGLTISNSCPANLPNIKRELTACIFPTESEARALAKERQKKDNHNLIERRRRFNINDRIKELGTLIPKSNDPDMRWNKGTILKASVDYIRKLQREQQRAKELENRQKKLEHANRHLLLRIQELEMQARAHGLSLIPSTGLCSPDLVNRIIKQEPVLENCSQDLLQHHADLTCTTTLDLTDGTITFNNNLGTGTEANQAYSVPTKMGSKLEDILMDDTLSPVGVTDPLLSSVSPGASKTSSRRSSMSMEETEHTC", "assay": "TRPM1 promoter luciferase signal decrease, dose response, MITF inhibitor project, cell-based, SK-MEL-5, cherry-picked, set 3 (AID 493073)", "format": "functional"}, "CAAX prenyl protease 2 [5]": {"target": "CAAX prenyl protease 2 (Homo sapiens, UniProt Q9Y256)", "sequence (Q9Y256 whole entry)": "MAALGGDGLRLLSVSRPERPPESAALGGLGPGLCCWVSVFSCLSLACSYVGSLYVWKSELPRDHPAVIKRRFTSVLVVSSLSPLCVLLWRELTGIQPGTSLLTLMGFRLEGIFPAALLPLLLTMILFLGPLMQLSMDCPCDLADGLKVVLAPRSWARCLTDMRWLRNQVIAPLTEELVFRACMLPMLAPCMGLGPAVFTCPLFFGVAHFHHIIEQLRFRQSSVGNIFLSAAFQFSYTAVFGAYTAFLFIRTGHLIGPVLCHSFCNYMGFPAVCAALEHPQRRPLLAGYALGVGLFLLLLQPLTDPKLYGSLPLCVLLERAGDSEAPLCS", "assay": "human Rce1 protease inhibitors, dose response, biochemical, yeast membranes, quenched-peptide fluorescence, cherry-pick (AID 588849)"}, "CAAX prenyl protease 2 [6]": {"target": "T2, CAAX prenyl protease 2 (Saccharomyces cerevisiae S288c, UniProt Q03530)", "T2 sequence (Q03530 whole entry)": "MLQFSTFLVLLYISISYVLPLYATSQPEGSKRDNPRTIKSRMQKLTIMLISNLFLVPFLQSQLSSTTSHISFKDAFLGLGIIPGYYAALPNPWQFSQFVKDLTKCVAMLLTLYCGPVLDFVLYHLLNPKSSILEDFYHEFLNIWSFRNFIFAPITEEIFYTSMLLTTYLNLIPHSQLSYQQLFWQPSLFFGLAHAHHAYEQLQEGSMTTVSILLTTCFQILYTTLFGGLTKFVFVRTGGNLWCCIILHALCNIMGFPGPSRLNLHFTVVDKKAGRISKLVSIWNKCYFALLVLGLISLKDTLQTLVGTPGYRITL", "format": "biochemical"}, "Trypsin": {"target": "Trypsin (Sus scrofa, UniProt P00761)", "sequence (P00761 whole entry)": "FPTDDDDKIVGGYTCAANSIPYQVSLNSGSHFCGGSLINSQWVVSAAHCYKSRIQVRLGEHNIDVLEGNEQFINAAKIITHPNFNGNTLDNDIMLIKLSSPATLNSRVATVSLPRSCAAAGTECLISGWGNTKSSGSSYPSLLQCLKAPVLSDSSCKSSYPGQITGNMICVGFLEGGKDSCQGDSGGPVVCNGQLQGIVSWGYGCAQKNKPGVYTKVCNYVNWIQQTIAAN", "assay": "porcine trypsin inhibitors, dose response, selectivity assay for Rce1 protease inhibitor project, biochemical, quenched peptide fluorescence, cherry-pick (AID 488789)"}, "HeLa": {"test_system": "HeLa", "assay": "HeLa cell cytotoxicity, dose response, cytotoxicity control for MITF activator project, CellTiter-Glo luminescence, cherry-pick samples (AID 540259)", "format": "functional, cell-based", "conditions": "Homo sapiens"}}, "note": "Active and inactive are the calls of the source."}
{"smiles": "COc1cc(CC(C)N)c(OC)cc1I", "note": "(configuration not stated)", "values": [{"measurement": "AC50", "setting": "[1]", "value": "15.8 µM (inconclusive)"}]}
{"smiles": "CCN1CCN(c2cc(=O)n(-c3cc(Cl)ccc3C)c(=O)[nH]2)CC1", "values": [{"measurement": "AC50", "setting": "Cytochrome P450 2D6", "value": "inconclusive"}]}
{"smiles": "CC1=C([N+](=O)[O-])C(c2cccc(Br)c2)C2=C(O)c3ccccc3C2=N1", "note": "(configuration not stated)", "values": [{"measurement": "EC50", "setting": "HEK293 [2]", "value": "> 59.6 µM (inactive)"}, {"measurement": "EC50", "setting": "HEK293 [3]", "value": "> 59.6 µM (inactive)"}]}
{"smiles": "CCCCn1c(=N)n(CCOc2ccc(C)cc2)c2ccccc21", "values": [{"measurement": "AC50", "setting": "A-375", "value": "18.3 µM (active)"}, {"measurement": "AC50", "setting": "[4]", "value": "11.3 µM (active)"}]}
{"smiles": "CC(C)(C)C(=O)C[n+]1ccc(C(N)=O)cc1", "values": [{"measurement": "AC50", "setting": "CAAX prenyl protease 2 [5]", "value": "12.5 µM (active)"}, {"measurement": "AC50", "setting": "CAAX prenyl protease 2 [6]", "value": "15.1 µM (active)"}, {"measurement": "AC50", "setting": "Trypsin", "value": "13.4 µM (active)"}]}
{"smiles": "Cc1ccccc1NC(=O)Cc1nc(COC(=O)c2ccc(S(C)(=O)=O)c([N+](=O)[O-])c2)cs1", "values": [{"measurement": "AC50", "setting": "A-375", "value": "28.2 µM (active)"}, {"measurement": "AC50", "setting": "[4]", "value": "12.8 µM (active)"}]}
{"smiles": "COc1cccc(NC(=O)Nc2ccc3c(c2)nnn3C)c1", "values": [{"measurement": "AC50", "setting": "HeLa", "value": "> 350 µM (inactive)"}]}
